Results published in ChEMBL document CHEMBL5257025, “Artemisinin-Derived Dimers: Potent Antimalarial and Anticancer Agents” (J Med Chem, 2016).

Key:
BT-474 = test: Antiproliferative activity against human BT-474 cells assessed as reduction in cell growth measured after 72 hrs by MTT assay; format: functional, cell-based; conditions: BT-474, 72 h
Plasmodium falciparum [1] = test: Antimalarial activity against Plasmodium falciparum NF54 assessed as reduction in cell growth; format: functional, organism-based
MDA-MB-231 = test: Antiproliferative activity against human MDA-MB-231 cells assessed as reduction in cell viability measured after 48 hrs by MTT assay; format: functional, cell-based; conditions: MDA-MB-231, 48 h
Jurkat = test: Antiproliferative activity against human Jurkat cells assessed as reduction in cell viability incubated for 48 hrs by MTT assay; format: functional, cell-based
Plasmodium falciparum [2] = test: Antimalarial activity against Plasmodium falciparum HB3 assessed as inhibition of malarial growth; format: functional, organism-based
HL-60 = test: Growth inhibition of human HL-60 cells assessed as cell growth inhibition measured after 48 hrs by MTT assay; format: functional
Plasmodium falciparum [3] = test: Antimalarial activity against Plasmodium falciparum K1 assessed as inhibition of malarial growth; format: functional, organism-based
C2D cell line = test: Cytotoxicity against mouse C2D cell line assessed as inhibition of cell growth measured after 72 hrs by MTT assay; format: functional, cell-based
TRAMP-C2H = test: Cytotoxicity against mouse TRAMP-C2H cells assessed as inhibition of cell growth measured after 72 hs by MTT assay; format: functional, cell-based
C2G cell line = test: Cytotoxicity against mouse C2G cells assessed as inhibition of cell growth measured after 72 hrs by MTT assay; format: functional, cell-based
TRAMP-C1A = test: Cytotoxicity against mouse TRAMP-C1A cells assessed as inhibition of cell growth measured after 72 hrs by MTT assay; format: functional, cell-based
[4] = Antiproliferative activity against human BC cells assessed as growth inhibition; format: functional, cell-based
[5] = Cytotoxicity against African green monkey Vero cells; format: toxicity, cell-based; conditions: chlorocebus sabaeus, read-out: TC50 (the source's name)
KB = test: Antiproliferative activity against human KB cells assessed as reduction in cell viability incubated for 48 hrs by MTT assay; format: functional, cell-based
[6] = Antiproliferative activity against human 1205Lu cells assessed as reduction in cell growth; format: functional, cell-based
HeLa = test: Antiproliferative activity against human Hela cells assessed as cell growth inhibition measured after 48 hrs by MTT assay; format: functional, cell-based
HCT-116 = test: Antiproliferative activity against human HCT-116 cells assessed as growth after 48 hrs by MTT assay; format: functional, cell-based; conditions: HCT-116, 48 h
[7] = Cytotoxicity against human HFF cells assessed as cell growth inhibition measured after 48 hrs by MTT assay; format: toxicity, cell-based
Plasmodium falciparum [8] = test: microbe, parasite or virus in culture; conditions: Dd2
Description: Antiplasmodial activity against Plasmodium falciparum Dd2 assessed as inhibition of parasitic growth

BT-549 = test: Antiproliferative activity against human BT-549 cells assessed as reduction in cell viability incubated for 48 hrs by MTT assay; format: functional, cell-based; conditions: BT-549, 48 h
Plasmodium falciparum [9] = test: Antiplasmodial activity against Plasmodium falciparum NF54 assessed as reduction in malarial growth; format: functional, organism-based

C[C@@H]1CC[C@H]2[C@@H](C)C(CC(COC(=O)CCC(=O)O)CC3O[C@H]4O[C@@]5(C)CC[C@H]6[C@H](C)CC[C@@H]([C@H]3C)[C@@]46OO5)O[C@H]3O[C@@]4(C)CC[C@@H]1[C@]32OO4 (stereo partly drawn)
IC50 (BT-474): 390 nM | IC50 (Plasmodium falciparum [1]): 2 nM | IC50 (MDA-MB-231): 32 µM

C[C@@H]1CC[C@H]2[C@@H](C)C(CCCOP(=O)(OCCC3O[C@H]4O[C@@]5(C)CC[C@H]6[C@H](C)CC[C@@H]([C@H]3C)[C@@]46OO5)Oc3ccccc3)O[C@H]3O[C@@]4(C)CC[C@@H]1[C@]32OO4 (stereo partly drawn)
IC50 (Jurkat): 13.2 µM | IC50 (Plasmodium falciparum [2]): 0.18 nM | GI50 (HL-60): 241 nM | IC50 (Plasmodium falciparum [3]): 0.5 nM

C[C@@H]1CC[C@H]2[C@@H](C)C(CC(CC3O[C@@H]4O[C@]5(C)CC[C@@H]6[C@@H](C)CC[C@H]([C@@H]3C)[C@]46OO5)CN3CCN(c4cccnc4)CC3)O[C@H]3O[C@@]4(C)CC[C@@H]1[C@]32OO4 (stereo partly drawn)
IC50 (BT-474): 70 nM | IC50 (MDA-MB-231): 10 µM

C[C@@H]1CC[C@H]2[C@@H](C)C(CC(COC(=O)c3cc[n+]([O-])cc3)CC3O[C@H]4O[C@@]5(C)CC[C@H]6[C@H](C)CC[C@@H]([C@H]3C)[C@@]46OO5)O[C@H]3O[C@@]4(C)CC[C@@H]1[C@]32OO4 (stereo partly drawn)
IC50 (Plasmodium falciparum [1]): 0.53 nM | IC50 (C2D cell line): 62.1 nM | IC50 (TRAMP-C2H): 36.1 nM | IC50 (C2G cell line): 47.4 nM | IC50 (TRAMP-C1A): 84.6 nM

C[C@H]1[C@H](CCCCC[C@H]2O[C@H]3O[C@@]4(C)CC[C@H]5[C@H](C)CC[C@@H]([C@H]2C)[C@@]35OO4)O[C@H]2O[C@@]3(C)CC[C@H]4[C@H](C)CC[C@@H]1[C@@]24OO3
IC50 [4]: 360 nM | IC50 (Plasmodium falciparum [3]): 0.91 nM | CC50 [5]: 2.8 µM | IC50 (KB): 0.76 µM

Nc1ccn([C@@H]2O[C@H](CO)[C@@H](O)C2(F)F)c(=O)n1 [GEMCITABINE]
IC50 (C2D cell line): 3.7 nM | IC50 (TRAMP-C2H): 3.7 nM | IC50 (C2G cell line): 3.7 nM | IC50 (TRAMP-C1A): 3.7 nM

C[C@@H]1CC[C@H]2[C@@H](C)C(CC(CC3O[C@@H]4O[C@]5(C)CC[C@@H]6[C@@H](C)CC[C@H]([C@@H]3C)[C@]46OO5)CS(=O)(=O)c3ccc(COC(=O)N(C)C)cc3)O[C@H]3O[C@@]4(C)CC[C@@H]1[C@]32OO4 (stereo partly drawn)
IC50 [6]: 130 nM | IC50 (HeLa): 270 nM | IC50 (HCT-116): 70 nM | IC50 at 48 h [7]: 57.5 µM

C[C@@H]1CC[C@H]2[C@@H](C)C(CC(COP(=O)(Oc3ccccc3)Oc3ccccc3)CC3O[C@@H]4O[C@]5(C)CC[C@@H]6[C@@H](C)CC[C@H]([C@@H]3C)[C@]46OO5)O[C@H]3O[C@@]4(C)CC[C@@H]1[C@]32OO4 (stereo partly drawn)
IC50 [6]: 60 nM | IC50 (HeLa): 190 nM | IC50 (HCT-116): 40 nM | IC50 at 48 h [7]: 55.8 µM

COP(=O)(OCCCC1O[C@H]2O[C@@]3(C)CC[C@H]4[C@H](C)CC[C@@H]([C@H]1C)[C@@]24OO3)OCCC1O[C@H]2O[C@@]3(C)CC[C@H]4[C@H](C)CC[C@@H]([C@H]1C)[C@@]24OO3 (stereo partly drawn)
IC50 (Jurkat): 7.7 µM | IC50 (Plasmodium falciparum [2]): 0.09 nM | GI50 (HL-60): 143 nM | IC50 (Plasmodium falciparum [3]): 0.2 nM

C[C@@H]1CC[C@H]2[C@@H](C)C(CCN3CCC(C4CCN(CCC5O[C@H]6O[C@@]7(C)CC[C@H]8[C@H](C)CC[C@@H]([C@H]5C)[C@@]68OO7)CC4)CC3)O[C@H]3O[C@@]4(C)CC[C@@H]1[C@]32OO4 (stereo partly drawn)
GI50 (HL-60): 400 nM

C[C@@H]1CC[C@H]2[C@@H](C)C(CC(COP(=O)(O)Oc3ccccc3)CC3O[C@@H]4O[C@]5(C)CC[C@@H]6[C@@H](C)CC[C@H]([C@@H]3C)[C@]46OO5)O[C@H]3O[C@@]4(C)CC[C@@H]1[C@]32OO4 (stereo partly drawn)
IC50 (HeLa): 18600 nM | IC50 (HCT-116): 6670 nM | IC50 at 48 h [7]: 56.5 µM

C[C@@H]1CC[C@H]2[C@@H](C)C(CC(CC3O[C@@H]4O[C@]5(C)CC[C@@H]6[C@@H](C)CC[C@H]([C@@H]3C)[C@]46OO5)CN3CCN(c4ccccn4)CC3)O[C@H]3O[C@@]4(C)CC[C@@H]1[C@]32OO4 (stereo partly drawn)
IC50 (BT-474): 22 nM | IC50 (MDA-MB-231): 5 µM

C[C@@H]1CC[C@H]2[C@@H](C)C(CC(CC3O[C@@H]4O[C@]5(C)CC[C@@H]6[C@@H](C)CC[C@H]([C@@H]3C)[C@]46OO5)C(=O)NN)O[C@H]3O[C@@]4(C)CC[C@@H]1[C@]32OO4 (stereo partly drawn)
IC50 (BT-474): 13 nM

C[C@@H]1CC[C@H]2[C@@H](C)C(O)O[C@H]3O[C@]4(C)CC[C@@H]1[C@]32O4 (stereo partly drawn)
IC50 (Plasmodium falciparum [8]): 2730 nM

CC(=O)N1CCN(CC(CC2O[C@@H]3O[C@]4(C)CC[C@@H]5[C@@H](C)CC[C@H]([C@@H]2C)[C@]35OO4)CC2O[C@H]3O[C@@]4(C)CC[C@H]5[C@H](C)CC[C@@H]([C@H]2C)[C@@]35OO4)CC1 (stereo partly drawn)
IC50 (BT-474): 60 nM | IC50 (MDA-MB-231): 8 µM

C[C@@H]1CC[C@H]2[C@@H](C)C(OCC(O)COC3O[C@@H]4O[C@]5(C)CC[C@@H]6[C@@H](C)CC[C@H]([C@@H]3C)[C@]46OO5)O[C@H]3O[C@@]4(C)CC[C@@H]1[C@]32OO4 (stereo partly drawn)
IC50 (BT-549): 480 nM

C[C@@H]1CC[C@H]2[C@H](C[C@]3(CCCCc4ccccc4)O[C@H]4O[C@@]5(C)CC[C@H]6[C@H](C)CC[C@@H]([C@H]3C)[C@@]46OO5)C(=O)O[C@H]3O[C@@]4(C)CC[C@@H]1[C@]32OO4
IC50 [4]: 1200 nM | IC50 (Plasmodium falciparum [9]): 3.4 nM | CC50 [5]: 2.4 µM | IC50 (KB): 5.7 µM

C[C@@H]1CC[C@H]2[C@@H](C)C(CC(CC3O[C@@H]4O[C@]5(C)CC[C@@H]6[C@@H](C)CC[C@H]([C@@H]3C)[C@]46OO5)CS(=O)(=O)c3ccc(CO)cc3)O[C@H]3O[C@@]4(C)CC[C@@H]1[C@]32OO4 (stereo partly drawn)
IC50 [6]: 100 nM | IC50 (HeLa): 560 nM | IC50 (HCT-116): 70 nM | IC50 at 48 h [7]: 4.9 µM

C[C@H]1[C@H](CCCC[C@H]2O[C@H]3O[C@@]4(C)CC[C@H]5[C@H](C)CC[C@@H]([C@H]2C)[C@@]35OO4)O[C@H]2O[C@@]3(C)CC[C@H]4[C@H](C)CC[C@@H]1[C@@]24OO3
IC50 [4]: 1600 nM | IC50 (Plasmodium falciparum [3]): 1.4 nM | CC50 [5]: 10 µM | IC50 (KB): 1.8 µM

C[C@@H]1CC[C@H]2[C@@H](C)C(CC(CC3O[C@@H]4O[C@]5(C)CC[C@@H]6[C@@H](C)CC[C@H]([C@@H]3C)[C@]46OO5)C(=O)O)O[C@H]3O[C@@]4(C)CC[C@@H]1[C@]32OO4 (stereo partly drawn)
IC50 (Plasmodium falciparum [1]): 2.4 nM | IC50 (C2D cell line): 231 nM | IC50 (C2G cell line): 134 nM | IC50 (TRAMP-C1A): 159 nM

C[C@@H]1CC[C@H]2[C@H](C[C@]3(Cc4cccc(F)c4)O[C@H]4O[C@@]5(C)CC[C@H]6[C@H](C)CC[C@@H]([C@H]3C)[C@@]46OO5)C(=O)O[C@H]3O[C@@]4(C)CC[C@@H]1[C@]32OO4
IC50 [4]: 3500 nM | CC50 [5]: 5.5 µM | IC50 (KB): 4 µM

C[C@H]1[C@H](OC(=O)CCC(=O)O)O[C@@H]2O[C@@]3(C)CC[C@H]4[C@H](C)CC[C@@H]1[C@@]24OO3 [ARTESUNATE]
IC50 [6]: 7100 nM | IC50 (HeLa): 7100 nM | IC50 (HCT-116): 7100 nM | CC50 at 48 h ([7]; time 48 hrs, read-out: TC50): 717 µM

C[C@@H]1CC[C@H]2[C@@H](C)C(CC(CC3O[C@@H]4O[C@]5(C)CC[C@@H]6[C@@H](C)CC[C@H]([C@@H]3C)[C@]46OO5)CN3CCN(C)CC3)O[C@H]3O[C@@]4(C)CC[C@@H]1[C@]32OO4 (stereo partly drawn)
IC50 (BT-474): 110 nM | IC50 (MDA-MB-231): 3.3 µM

CCCCC[C@@]1(C[C@@H]2C(=O)O[C@H]3O[C@@]4(C)CC[C@H]5[C@H](C)CC[C@@H]2[C@@]35OO4)O[C@H]2O[C@@]3(C)CC[C@H]4[C@H](C)CC[C@@H]([C@H]1C)[C@@]24OO3
IC50 [4]: 36000 nM | CC50 [5]: 63 µM | IC50 (KB): 23 µM
